Laboratory results reported in patent US6503936B1 (priority 1998, dated 2003).
Read-outs that look alike come from different tables or passages of the source.

Assays:
Phytophthora infestans [1] = type: in vivo; details: tomato leaves, 6 days after infection
Phytophthora infestans [2] = type: in vivo; details: tomato leaves, 6 days after infection; remark: listed apart in the source

O=S(=O)([O-])[O-].[Cu+2].[Cu+2].[Cu+2].[Cu+2].[OH-].[OH-].[OH-].[OH-].[OH-].[OH-] [II.1, tribasic copper sulfate 3Cu(OH)2xCuSO4]
Efficiency in % of the untreated control (Phytophthora infestans [1]; 12.5 ppm active compound in the spray liquor): 0% | Efficiency in % of the untreated control (Phytophthora infestans [1]; 25 ppm active compound in the spray liquor): 0% | Efficiency in % of the untreated control (Phytophthora infestans [1]; 50 ppm active compound in the spray liquor): 0% | Efficiency in % of the untreated control (Phytophthora infestans [1]; 100 ppm active compound in the spray liquor): 10% | Efficiency in % of the untreated control (Phytophthora infestans [2]; Conc. 12.5 ppm): 0% | Efficiency in % of the untreated control (Phytophthora infestans [2]; Conc. 25 ppm): 8% | Efficiency in % of the untreated control (Phytophthora infestans [2]; Conc. 50 ppm): 8% | Efficiency in % of the untreated control (Phytophthora infestans [2]; Conc. 100 ppm): 8% | Efficiency in % of the untreated control (Phytophthora infestans [2]; Conc. 200 ppm): 8%
